Reference: ChEMBL document CHEMBL4138123, “Design, synthesis and biological evaluation of novel pyrazolochalcones as potential modulators of PI3K/Akt/mTOR pathway and inducers of apoptosis in breast cancer cells” (Eur J Med Chem, 2017)

Columns and labels:
Format in all cases: functional
SF-295 [1] = assay: Cytotoxicity against human SF295 cells assessed as growth inhibition after 48 hrs by sulforhodamine B assay; settings: SF-295, 48 h
SNB-75 [2] = assay: Cytotoxicity against human SNB75 cells assessed as growth inhibition after 48 hrs by sulforhodamine B assay; settings: SNB-75, 48 h
CAKI-1 [3] = assay: Cytotoxicity against human Caki1 cells assessed as growth inhibition after 48 hrs by sulforhodamine B assay; settings: CAKI-1, 48 h
CAKI-1 [4] = assay: Cytotoxicity against human Caki1 cells assessed as cell growth at 0.01 uM after 48 hrs by sulforhodamine B assay relative to control; settings: CAKI-1, 48 h, read-out: Activity
SF-295 [5] = assay: Cytotoxicity against human SF295 cells assessed as cell growth at 0.01 uM after 48 hrs by sulforhodamine B assay relative to control; settings: SF-295, 48 h, read-out: Activity
SF-295 [6] = assay: Cytotoxicity against human SF295 cells assessed as cell growth at 0.1 uM after 48 hrs by sulforhodamine B assay relative to control; settings: SF-295, 48 h, read-out: Activity
SNB-75 [7] = assay: Cytotoxicity against human SNB75 cells assessed as cell growth at 0.1 uM after 48 hrs by sulforhodamine B assay relative to control; settings: SNB-75, 48 h, read-out: Activity
CAKI-1 [8] = assay: Cytotoxicity against human Caki1 cells assessed as cell growth at 0.1 uM after 48 hrs by sulforhodamine B assay relative to control; settings: CAKI-1, 48 h, read-out: Activity
SF-295 [9] = assay: Cytotoxicity against human SF295 cells assessed as cell growth at 1 uM after 48 hrs by sulforhodamine B assay relative to control; settings: SF-295, 48 h, read-out: Activity
SNB-75 [10] = assay: Cytotoxicity against human SNB75 cells assessed as cell growth at 1 uM after 48 hrs by sulforhodamine B assay relative to control; settings: SNB-75, 48 h, read-out: Activity
CAKI-1 [11] = assay: Cytotoxicity against human Caki1 cells assessed as cell growth at 1 uM after 48 hrs by sulforhodamine B assay relative to control; settings: CAKI-1, 48 h, read-out: Activity
SF-295 [12] = assay: Cytotoxicity against human SF295 cells assessed as cell growth at 10 uM after 48 hrs by sulforhodamine B assay relative to control; settings: SF-295, 48 h, read-out: Activity
SNB-75 [13] = assay: Cytotoxicity against human SNB75 cells assessed as cell growth at 10 uM after 48 hrs by sulforhodamine B assay relative to control; settings: SNB-75, 48 h, read-out: Activity
CAKI-1 [14] = assay: Cytotoxicity against human Caki1 cells assessed as cell growth at 10 uM after 48 hrs by sulforhodamine B assay relative to control; settings: CAKI-1, 48 h, read-out: Activity
SF-295 [15] = assay: Cytotoxicity against human SF295 cells assessed as cell growth at 100 uM after 48 hrs by sulforhodamine B assay relative to control; settings: SF-295, 48 h, read-out: Activity
SNB-75 [16] = assay: Cytotoxicity against human SNB75 cells assessed as cell growth at 100 uM after 48 hrs by sulforhodamine B assay relative to control; settings: SNB-75, 48 h, read-out: Activity
CAKI-1 [17] = assay: Cytotoxicity against human Caki1 cells assessed as cell growth at 100 uM after 48 hrs by sulforhodamine B assay relative to control; settings: CAKI-1, 48 h, read-out: Activity
HOP-92 [18] = assay: Cytotoxicity against human HOP92 cells assessed as growth inhibition after 48 hrs by sulforhodamine B assay; settings: HOP-92, 48 h; for CC50: read-out: LC50 (the source's name)
SK-MEL-2 [19] = assay: Cytotoxicity against human SK-MEL-2 cells assessed as cell growth at 0.01 uM after 48 hrs by sulforhodamine B assay relative to control; settings: SK-MEL-2, 48 h, read-out: Activity
LOX IMVI [20] = assay: Cytotoxicity against human LOXIMVI cells assessed as cell growth at 0.01 uM after 48 hrs by sulforhodamine B assay relative to control; settings: read-out: Activity
HOP-92 [21] = assay: Cytotoxicity against human HOP92 cells assessed as cell growth at 0.01 uM after 48 hrs by sulforhodamine B assay relative to control; settings: HOP-92, 48 h, read-out: Activity
HOP-92 [22] = assay: Cytotoxicity against human HOP92 cells assessed as cell growth at 0.1 uM after 48 hrs by sulforhodamine B assay relative to control; settings: HOP-92, 48 h, read-out: Activity
LOX IMVI [23] = assay: Cytotoxicity against human LOXIMVI cells assessed as cell growth at 0.1 uM after 48 hrs by sulforhodamine B assay relative to control; settings: read-out: Activity
SK-MEL-2 [24] = assay: Cytotoxicity against human SK-MEL-2 cells assessed as cell growth at 0.1 uM after 48 hrs by sulforhodamine B assay relative to control; settings: SK-MEL-2, 48 h, read-out: Activity
HOP-92 [25] = assay: Cytotoxicity against human HOP92 cells assessed as cell growth at 1 uM after 48 hrs by sulforhodamine B assay relative to control; settings: HOP-92, 48 h, read-out: Activity
LOX IMVI [26] = assay: Cytotoxicity against human LOXIMVI cells assessed as cell growth at 1 uM after 48 hrs by sulforhodamine B assay relative to control; settings: read-out: Activity
SK-MEL-2 [27] = assay: Cytotoxicity against human SK-MEL-2 cells assessed as cell growth at 1 uM after 48 hrs by sulforhodamine B assay relative to control; settings: SK-MEL-2, 48 h, read-out: Activity
HOP-92 [28] = assay: Cytotoxicity against human HOP92 cells assessed as cell growth at 10 uM after 48 hrs by sulforhodamine B assay relative to control; settings: HOP-92, 48 h, read-out: Activity
SK-MEL-2 [29] = assay: Cytotoxicity against human SK-MEL-2 cells assessed as cell growth at 10 uM after 48 hrs by sulforhodamine B assay relative to control; settings: SK-MEL-2, 48 h, read-out: Activity
HOP-92 [30] = assay: Cytotoxicity against human HOP92 cells assessed as cell growth at 100 uM after 48 hrs by sulforhodamine B assay relative to control; settings: HOP-92, 48 h, read-out: Activity
LOX IMVI [31] = assay: Cytotoxicity against human LOXIMVI cells assessed as cell growth at 100 uM after 48 hrs by sulforhodamine B assay relative to control; settings: read-out: Activity
SK-MEL-2 [32] = assay: Cytotoxicity against human SK-MEL-2 cells assessed as cell growth at 100 uM after 48 hrs by sulforhodamine B assay relative to control; settings: SK-MEL-2, 48 h, read-out: Activity

Compound	GI50 (SF-295 [1])	LC50 (SF-295 [1])	TGI (SF-295 [1])	GI50 (SNB-75 [2])	TGI (SNB-75 [2])	growth at 0.01 µM (SF-295 [5])	growth at 0.1 µM (SF-295 [6])	growth at 0.1 µM (SNB-75 [7])	growth at 1 µM (SF-295 [9])	growth at 10 µM (SF-295 [12])	growth at 100 µM (SF-295 [15])	growth at 0.01 µM (SK-MEL-2 [19])	growth at 0.01 µM (LOX IMVI [20])	growth at 0.1 µM (LOX IMVI [23])	growth at 0.1 µM (SK-MEL-2 [24])	growth at 1 µM (LOX IMVI [26])	growth at 1 µM (SK-MEL-2 [27])	growth at 10 µM (SK-MEL-2 [29])	growth at 100 µM (LOX IMVI [31])	growth at 100 µM (SK-MEL-2 [32])	other results
COc1cc2c(cc1OC)C(=O)/C(=C/c1cc(-c3ccc4c(c3)OCO4)n[nH]1)C2	1.64 µM	6.5 µM	3.26 µM	1.65 µM	3.02 µM	95%	95%	94%	86%	-81%	-93%	–	–	–	–	–	–	–	–	–	LC50 (concentration killing 50% of cells) (SNB-75 [2]): 5.51 µM; GI50 (CAKI-1 [3]): 1.5 µM; LC50 (CAKI-1 [3]): 6 µM; TGI (CAKI-1 [3]): 3 µM; growth at 0.01 µM (CAKI-1 [4]): 98%; growth at 0.1 µM (CAKI-1 [8]): 97%; growth at 1 µM (SNB-75 [10]): 92%; growth at 1 µM (CAKI-1 [11]): 79%; growth at 10 µM (SNB-75 [13]): -100%; growth at 10 µM (CAKI-1 [14]): -87%; growth at 100 µM (SNB-75 [16]): -96%; growth at 100 µM (CAKI-1 [17]): -81%
COc1ccc(-c2cc(/C=C/C(=O)c3cc(OC)c(OC)c(OC)c3)[nH]n2)cc1OC	1.67 µM	12.5 µM	4.26 µM	1.31 µM	3.77 µM	97%	87%	77%	77%	-46%	-91%	100%	96%	94%	95%	78%	97%	-12%	-69%	-92%	GI50 (HOP-92 [18]): 1.61 µM; TGI (HOP-92 [18]): 5.48 µM; CC50 (HOP-92 [18]): 26.6 µM; LC50 (concentration killing 50% of cells) (SNB-75 [2]): 12.7 µM; growth at 0.01 µM (HOP-92 [21]): 103%; growth at 0.1 µM (HOP-92 [22]): 74%; growth at 1 µM (HOP-92 [25]): 70%; growth at 1 µM (SNB-75 [10]): 63%; growth at 10 µM (HOP-92 [28]): -25%; growth at 10 µM (SNB-75 [13]): -46%; growth at 100 µM (HOP-92 [30]): -84%; growth at 100 µM (SNB-75 [16]): -82%
COc1cc(-c2cc(/C=C/C(=O)c3ccc(F)c(F)c3)[nH]n2)cc(OC)c1OC	–	–	–	–	–	–	–	–	–	–	–	93%	93%	94%	98%	92%	94%	-28%	-86%	-64%	LC50 (CAKI-1 [3]): > 100 µM; TGI (CAKI-1 [3]): > 100 µM; growth at 0.01 µM (CAKI-1 [4]): 95%; growth at 0.1 µM (CAKI-1 [8]): 94%; growth at 1 µM (CAKI-1 [11]): 84%; growth at 10 µM (CAKI-1 [14]): 12%; growth at 100 µM (CAKI-1 [17]): 3%
COc1ccc(C(=O)/C=C/c2cc(-c3ccc(OC)c(OC)c3)n[nH]2)cc1OC	1.6 µM	–	5.05 µM	1.16 µM	2.96 µM	85%	90%	89%	70%	-30%	-57%	110%	100%	99%	113%	68%	111%	-44%	-91%	-58%	GI50 (HOP-92 [18]): 1.97 µM; TGI (HOP-92 [18]): 8.12 µM; CC50 (HOP-92 [18]): > 100 µM; growth at 0.01 µM (HOP-92 [21]): 83%; growth at 0.1 µM (HOP-92 [22]): 81%; growth at 1 µM (HOP-92 [25]): 74%; growth at 1 µM (SNB-75 [10]): 58%; growth at 10 µM (HOP-92 [28]): -7%; growth at 10 µM (SNB-75 [13]): -65%; growth at 100 µM (HOP-92 [30]): -15%; growth at 100 µM (SNB-75 [16]): -82%
COc1cc(-c2cc(/C=C/C(=O)c3ccc(N)cc3)[nH]n2)cc(OC)c1OC	2.55 µM	34.8 µM	10.9 µM	–	–	88%	89%	–	82%	4%	-95%	106%	98%	99%	111%	83%	104%	-15%	-82%	-85%	GI50 (HOP-92 [18]): 3.68 µM; TGI (HOP-92 [18]): 27.6 µM; CC50 (HOP-92 [18]): > 100 µM; growth at 0.01 µM (HOP-92 [21]): 88%; growth at 0.1 µM (HOP-92 [22]): 82%; growth at 1 µM (HOP-92 [25]): 79%; growth at 10 µM (HOP-92 [28]): 28%; growth at 100 µM (HOP-92 [30]): -35%
